# Where two headings read alike, the source gives them in different places.
# How the values were obtained:
# [1] = target: T. brucei N-myristoyl transferase (Trypanosoma brucei brucei (strain 927/4 GUTat10.1), UniProt Q388H8); assay: biochemical; assay type: biochemical
# [2] = target: L. major N-myristoyl transferase (Leishmania major, UniProt Q4Q5S8); assay type: biochemical; conditions: Leishmania major NMT; value in parentheses; read-out: IC50 (μM) NMT Enzyme (LmNMT)
# [3] = system: Trypanosome (T. brucei brucei); assay: In-vitro antitrypanosomal efficacy assay (cell growth, resazurin); assay type: cell-based
# Protocol: To column 12, 200 μl media was added to provide a no cells control. Plates were then incubated at 37° C. in an atmosphere of 5% CO2 for 69 hours, before the addition of 20 μl of 500 μM rezasurin solution, and a further incubation period of 4 hours. […] Concentration effect curves were fitted using non-linear regression using XLFit 4.2 and EC50 values determined.
# [4] = target: human NMT-1 (Homo sapiens (Human), UniProt P30419); assay: NMT enzyme inhibition scintillation proximity assay, human NMT-1; assay type: biochemical
# Chain of human NMT-1 (P30419 whole entry): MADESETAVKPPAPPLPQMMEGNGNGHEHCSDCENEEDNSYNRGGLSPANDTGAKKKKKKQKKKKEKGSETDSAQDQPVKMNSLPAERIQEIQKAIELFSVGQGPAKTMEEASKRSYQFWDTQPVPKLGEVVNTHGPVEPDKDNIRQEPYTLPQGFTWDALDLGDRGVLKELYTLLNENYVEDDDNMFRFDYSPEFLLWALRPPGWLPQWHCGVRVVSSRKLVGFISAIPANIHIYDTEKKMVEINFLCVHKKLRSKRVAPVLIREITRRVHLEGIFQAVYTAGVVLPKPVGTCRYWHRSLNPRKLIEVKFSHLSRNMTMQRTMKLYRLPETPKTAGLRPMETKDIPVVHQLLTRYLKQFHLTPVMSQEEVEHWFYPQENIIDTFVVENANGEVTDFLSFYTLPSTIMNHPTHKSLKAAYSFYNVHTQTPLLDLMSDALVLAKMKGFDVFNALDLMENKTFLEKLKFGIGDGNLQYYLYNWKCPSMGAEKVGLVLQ
# [5] = T. brucei NMT, value without parentheses, read-out: IC50 (μM) NMT Enzyme (T. brucei NMT)
# [6] = T. brucei brucei, blood stream form, variant 221
# [7] = value with no enzyme tag in the cell, taken as T. brucei NMT, read-out: IC50 (μM) NMT Enzyme
# [8] = Human NMT-1, value in parentheses, read-out: IC50 (μM) NMT Enzyme (HuNMT-1)
# Chain of L. major N-myristoyl transferase (Q4Q5S8 1-421): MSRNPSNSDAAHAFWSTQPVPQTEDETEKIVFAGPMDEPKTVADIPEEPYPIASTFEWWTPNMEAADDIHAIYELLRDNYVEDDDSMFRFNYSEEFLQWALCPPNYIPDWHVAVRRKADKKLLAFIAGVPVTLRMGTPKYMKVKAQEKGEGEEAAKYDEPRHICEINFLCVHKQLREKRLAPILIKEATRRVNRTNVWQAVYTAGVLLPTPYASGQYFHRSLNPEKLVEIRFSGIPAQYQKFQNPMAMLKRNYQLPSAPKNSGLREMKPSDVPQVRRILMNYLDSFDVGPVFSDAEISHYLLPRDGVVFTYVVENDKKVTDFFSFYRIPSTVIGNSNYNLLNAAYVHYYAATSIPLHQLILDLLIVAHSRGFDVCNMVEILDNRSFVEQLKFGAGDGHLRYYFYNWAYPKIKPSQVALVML
# Chain of T. brucei N-myristoyl transferase (Q388H8 1-446): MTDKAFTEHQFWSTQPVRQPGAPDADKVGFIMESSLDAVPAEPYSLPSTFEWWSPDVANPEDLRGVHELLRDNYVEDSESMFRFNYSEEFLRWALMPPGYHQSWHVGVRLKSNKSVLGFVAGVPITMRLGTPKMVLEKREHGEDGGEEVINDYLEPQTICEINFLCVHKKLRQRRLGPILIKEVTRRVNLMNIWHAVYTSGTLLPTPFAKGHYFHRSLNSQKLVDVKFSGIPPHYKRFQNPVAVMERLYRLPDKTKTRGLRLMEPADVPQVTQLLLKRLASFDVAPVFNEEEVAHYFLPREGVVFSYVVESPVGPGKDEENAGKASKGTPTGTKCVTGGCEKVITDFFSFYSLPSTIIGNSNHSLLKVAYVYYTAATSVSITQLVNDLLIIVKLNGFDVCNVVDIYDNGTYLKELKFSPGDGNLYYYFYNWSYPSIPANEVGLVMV
SMILES,"IC50 [1, 5] [µM]",IC50 [2] [µM],"ED50 (μM) T. brucei [3, 6] [µM]",IC50 ([4]; HuNMT-1) [µM],"IC50 [1, 7] [µM]",ED50 (μM) T. brucei ([3]; T. brucei cell growth) [µM],"IC50 [4, 8] [µM]",IC50 ([1]; read-out: IC50 (μM) NMT Enzyme (T. brucei NMT)) [µM]
Cc1c(N[S+](=O)([O-])c2ccc(-c3cccc(CNCCc4ccccn4)c3)cc2)c(CC(C)C)nn1C [DDD100882],0.305,> 1,2.45,–,–,–,–,–
CCCc1nn(C)c(C)c1N[S+](=O)([O-])c1ccc(-c2cccc(CN(C)C)c2)cc1 [DDD100867],0.006,0.074,0.048,–,–,–,–,–
Cc1nn(C)c(C)c1N(C)[S+](=O)([O-])c1ccc(CCCN(C)C)cc1 [DDD99749],–,–,–,> 1,0.45,>1,–,–
Cc1nn(C)c(C)c1N[S+](=O)([O-])c1ccc(-c2cccc(-c3nccn3C)c2)cc1 [DDD100874],0.74,> 1,>1,–,–,–,> 1,–
Cc1c(N[S+](=O)([O-])c2ccc(Br)cc2)c(CCc2ccccc2)nn1C [DDD100880],> 1,> 1,21.4,–,–,–,> 1,–
Cc1nn(C)c(C)c1N(C)[S+](=O)([O-])c1ccc(CCCC2CCN(C(C)C)CC2)cc1 [DDD90153],–,–,–,> 1,0.31,>1,–,–
Cc1nn(C)c(C)c1N[S+](=O)([O-])c1ccc2nc(NC3CCNCC3)ccc2c1 [DDD88523],–,–,–,6.3,0.61,>1,–,–
Cc1nn(C)c(C)c1N(C(F)F)[S+](=O)([O-])c1c(Cl)cc(CCCCCCn2ccnc2C(C)C)cc1Cl [DDD100791],–,0.044,0.344,–,–,–,2.1,0.21
CCCCc1nn(C)c(C)c1N[S+](=O)([O-])c1ccc(Br)cc1 [DDD100875],2.68,> 1,20.5,–,–,–,> 1,–
Cc1nn(C)c(C)c1N(C)[S+](=O)([O-])c1ccc(CCCCCn2ccnc2)cc1 [DDD99735],–,–,–,2.9,0.83,>1,–,–
Cc1c(N[S+](=O)([O-])c2ccc(CCCC3CCN(C)CC3)cc2)c(Cc2ccccc2)nn1C [DDD100881],0.02,0.778,0.234,–,–,–,–,–
Cc1nn(C)c(C)c1N(CC(F)F)[S+](=O)([O-])c1c(Cl)cc(CCCN2CCN(C)CC2)cc1Cl [DDD100163],0.014,–,0.125,–,–,–,1.7,–
Cc1c(N[S+](=O)([O-])c2ccc(-c3cccc(CNCc4cccnc4)c3)cc2)c(CC(C)C)nn1C [DDD100793],0.026,1.4,0.54,–,–,–,–,–
Cc1c(N[S+](=O)([O-])c2ccc(-c3ccc(CN(C)C)cc3)cc2)c(CC(C)C)nn1C [DDD100865],0.097,1.9,7.3,–,–,–,–,–
Cc1c(N[S+](=O)([O-])c2ccc(-c3cccc(CNCc4ccccc4)c3)cc2)c(CC(C)C)nn1C [DDD100150],1.3,–,>1,–,–,–,4,–
CCCN(CCC)Cc1cccc(-c2cc(Cl)c([S+](=O)([O-])N(C)c3c(C)nn(C)c3C)c(Cl)c2)c1 [DDD88636],–,–,–,3.7,0.92,1.89,–,–
Cc1c(N(C)[S+](=O)([O-])c2ccc(CCCN3CCN(C)CC3)cc2)c(CC(C)C)nn1C [DDD90143],–,–,–,1.37,0.082,0.81,–,–
CCCCc1nn(C)c(C)c1N[S+](=O)([O-])c1ccc(-c2cccc(CN(C)C)c2)cc1 [DDD100866],0.01,0.054,3.2,–,–,–,–,–
Cc1nn(C)c(C)c1N(C)[S+](=O)([O-])c1ccc(CCCN2CCN(C)CC2)cc1 [DDD90115],–,–,–,6.1,0.26,2.21,–,–
Cc1ccncc1N[S+](=O)([O-])c1c(Cl)cc(-c2ccnc(N3CCNCC3)c2)cc1Cl [DDD88322],–,–,–,1.5,0.182,1.93,–,–
Cc1c(N[S+](=O)([O-])c2ccc(-c3cccc(CNC(C)C)c3)cc2)c(CC(C)C)nn1C [DDD100799],0.02,0.47,0.293,–,–,–,–,–
Cc1c(N[S+](=O)([O-])c2ccc(-c3cccc(CNC4CCCC4)c3)cc2)c(CC(C)C)nn1C [DDD100146],0.36,–,>1,–,–,–,2.3,–
Cc1c(N[S+](=O)([O-])c2ccc(-c3ccccc3CN(C)C)cc2)c(CC(C)C)nn1C [DDD100862],0.358,> 1,>1,–,–,–,–,–
Cc1c(N[S+](=O)([O-])c2ccc(-c3ccc4c(c3)CN(C)CC4)cc2)c(CC(C)C)nn1C [DDD100876],0.006,0.059,0.014,–,–,–,–,–
Cc1nn(C)c(C)c1N(C)[S+](=O)([O-])c1ccc(CCCCN(C)C)cc1 [DDD99745],–,–,–,> 10,2.1,>1,–,–

SMILES,"IC50 [1, 5] [µM]",IC50 [2] [µM],"ED50 (μM) T. brucei [3, 6] [µM]",IC50 ([4]; HuNMT-1) [µM],"IC50 [1, 7] [µM]",ED50 (μM) T. brucei ([3]; T. brucei cell growth) [µM],"IC50 [4, 8] [µM]",IC50 ([1]; read-out: IC50 (μM) NMT Enzyme (T. brucei NMT)) [µM]
Cc1nn(C)c(C)c1N(C)[S+](=O)([O-])c1ccc(CCCCn2ccnc2)cc1 [DDD99746],–,–,–,> 10,2,>1,–,–
Cc1nn(C)c(C)c1N(C)[S+](=O)([O-])c1ccc(CCCC2CCN(Cc3ccccc3)CC2)cc1 [DDD90152],–,–,–,> 1,0.5,>1,–,–
Cc1c(N[S+](=O)([O-])c2ccc(-c3cccc(C(C)(C)N(C)C)c3)cc2)c(CC(C)C)nn1C [DDD100863],0.006,0.091,0.015,–,–,–,–,–
Cn1cc(N[S+](=O)([O-])c2ccc(Br)cc2)cn1 [DDD88321],–,–,–,> 100,> 100,>10,–,–
Cc1nn(C)c(C)c1N[S+](=O)([O-])c1cccc(CCCN2CCN(C)CC2)c1 [DDD88640],–,–,–,> 1,> 1,18.7,–,–
Cc1c(N[S+](=O)([O-])c2ccc(-c3cccc(CNCCc4cccnc4)c3)cc2)c(CC(C)C)nn1C [DDD100869],0.004,0.019,5.7,–,–,–,–,–
Cc1nn(C)c(C)c1N(CC(F)F)[S+](=O)([O-])c1c(Cl)cc(Br)cc1Cl [DDD100147],3.2,–,>1,–,–,–,> 10,–
Cc1c(N[S+](=O)([O-])c2ccc(-c3cccc(CN(C)C)c3)cc2)c(CCc2ccccc2)nn1C [DDD100885],0.032,0.211,9.72,–,–,–,–,–
Cc1nn(C)c(C)c1N(C)[S+](=O)([O-])c1ccc(CCCn2ccnc2)cc1 [DDD99750],–,–,–,> 1,> 1,>1,–,–
Cc1c(N[S+](=O)([O-])c2ccc(-c3cccc(CN4CCC(N(C)C)C4)c3)cc2)c(CC(C)C)nn1C (stereo not shown) [DDD99821],–,–,–,3.8,0.16,0.59,–,–
Cc1c(N[S+](=O)([O-])c2ccc(-c3ccc(F)c(CN4CCCC4)c3)cc2)c(CC(C)C)nn1C [DDD100806],0.004,0.224,0.033,–,–,–,–,–
Cc1nn(C)c(C)c1N(CC(F)(F)F)[S+](=O)([O-])C1=C(Cl)C=C(CCCN2CCCNCC2)CC1Cl (stereo not shown) [DDD100148],0.008,–,0.018,–,–,–,0.21,–
Cc1c(N[S+](=O)([O-])c2ccc(-c3cccc(CNCCc4ccccc4)c3)cc2)c(CC(C)C)nn1C [DDD100139],1.4,–,>1,–,–,–,2.3,–
Cc1nn(C)cc1N[S+](=O)([O-])c1c(Cl)cc(Br)cc1Cl [DDD88324],–,–,–,3.36,75.4,>10,–,–
Cc1c(N[S+](=O)([O-])c2ccc(-c3cccc(CN4CCCC4C)c3)cc2)c(CC(C)C)nn1C (stereo not shown) [DDD100804],0.006,0.077,0.035,–,–,–,–,–
Cc1nn(C)c(C)c1N(CC(F)(F)F)[S+](=O)([O-])c1c(Cl)cc(CCCN2CCN(C)CC2)cc1Cl [DDD100149],0.014,–,0.132,–,–,–,2.4,–
Cc1c(N[S+](=O)([O-])c2ccc(-c3ccc4c(c3)CNCC4)cc2)c(CC(C)C)nn1C [DDD100801],0.004,0.011,0.014,–,–,–,–,–
Cc1nn(C)c(C)c1N(C)[S+](=O)([O-])c1c(Cl)cc(-c2cccc(CNC3CCCCC3)c2)cc1Cl [DDD88642],–,–,–,4.48,0.39,0.89,–,–
Cn1cc(N[S+](=O)([O-])c2c(Cl)cc(Br)cc2Cl)cn1 [DDD88325],–,–,–,> 100,> 100,>10,–,–
Cc1nn(C)c(C)c1N(C)[S+](=O)([O-])c1ccc(CCCC2CCN(CC3CC3)CC2)cc1 [DDD90155],–,–,–,> 1,> 1,4.0,–,–
CCN(C)Cc1cccc(-c2ccc([S+](=O)([O-])Nc3c(CC(C)C)nn(C)c3C)cc2)c1 [DDD99741],–,–,–,0.021,0.005,0.047,–,–
Cc1c(N[S+](=O)([O-])c2ccc(Br)cc2)cnn1C [DDD88326],–,–,–,> 100,> 100,>10,–,–
CCc1nn(C)c(CC)c1NS(=O)(=O)c1c(Cl)cc(Br)cc1Cl [DDD99835],0.38,–,>1,–,–,–,> 1,–
Cc1nn(C)cc1N[S+](=O)([O-])c1ccc(Br)cc1 [DDD88320],–,–,–,> 100,44.1,>10,–,–

# From patent publication US9156811B2 (priority 2008, dated 2015)
